Measurements from patent US10894775B2, “Piperidine derivatives as liver X receptor beta agonists, compositions, and their use” (Merck Sharp & Dohme Corp., priority 2016, dated 2021).
Like-named read-outs stand apart in the source and are kept apart here.

Key:
[1] = target: T1, glutathione-S-transferase (GST) tagged LXRbeta LBD (ligand binding domain) (Homo sapiens, UniProt P55055); assay: LanthaScreen TR-FRET Liver X Receptor Coactivator Assay, LXR beta; type: biochemical; conditions: for EC50: potency (Inflection Point) of compound-induced co-activator recruitment, TR-FRET; for Emax: read-out: LXR beta actiivty at max dose (%)
T1 construct: purchased Invitrogen pv4658.pps
T1 sequence (P55055 222-460 limits assumed): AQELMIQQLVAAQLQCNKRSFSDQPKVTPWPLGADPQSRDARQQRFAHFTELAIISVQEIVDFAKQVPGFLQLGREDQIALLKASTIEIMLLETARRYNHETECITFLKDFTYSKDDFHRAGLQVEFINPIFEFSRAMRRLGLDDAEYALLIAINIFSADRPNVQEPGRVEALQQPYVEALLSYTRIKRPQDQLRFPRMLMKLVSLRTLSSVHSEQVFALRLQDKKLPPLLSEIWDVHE
Method: (§1) While running the LanthaScreen™ TR-FRET Liver X Receptor Coactivator Assay, LXR alpha-LBD or LXR beta-LBD was added to ligand test compounds followed by addition of a mixture of a fluorescein-labelled coactivator peptide and terbium-conjugated anti-GST antibody. After an incubation period at room temperature, TR-FRET (time-resolved fluorescence resonance energy transfer) was measured using a filter-based instrument capable of TR-FRET, e.g. PerkinElmer Envision.

[2] = target: T2, glutathione-S-transferase (GST) tagged LXRalpha LBD (ligand binding domain) (Homo sapiens, UniProt Q13133); assay: LanthaScreen TR-FRET Liver X Receptor Coactivator Assay, LXR alpha; type: biochemical; conditions: for EC50 / LXR alpha IP (nM): potency (Inflection Point) of compound-induced co-activator recruitment, TR-FRET; for Emax: read-out: LXR alpha actiivty at max dose (%)
T2 construct: purchased Invitrogen pv4655
T2 sequence (Q13133 209-447 limits assumed): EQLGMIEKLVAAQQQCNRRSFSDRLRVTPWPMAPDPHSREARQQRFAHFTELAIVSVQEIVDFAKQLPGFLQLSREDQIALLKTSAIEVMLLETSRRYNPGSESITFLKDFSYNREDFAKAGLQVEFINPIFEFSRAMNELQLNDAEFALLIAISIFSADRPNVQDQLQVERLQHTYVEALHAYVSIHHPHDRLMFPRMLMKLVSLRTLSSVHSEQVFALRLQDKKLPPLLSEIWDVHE
Method: as §1

[3] = efficacy (Emax) in relation to reference dual agonist T0901317

For `CN(C)C(=O)c1ccc(CCCC2CCN(C(=O)C(O)(c3ccccc3)C(F)(F)F)CC2)cc1Cl` (single isomer, unassigned) [Example 15-1, (R or S)-2-chloro-N,N-dimethyl-4-(3-(1-(3,3,3-trifluoro-2-hydroxy-2-phenylpropanoyl)piperidin-4-yl)propyl)benzamide], the EC50 ([1]; LXR beta IP (nM)) was 46 nM, the Emax [1] was 41% and the EC50 ([2]; LXR alpha IP (nM)) was 1310 nM. It also gave an Emax [2] of 19%.

For `CN(C)C(=O)c1ccc(CCCCC2CCN(C(=O)C(O)(c3ccccc3)C(F)(F)F)CC2)cc1Cl` (single isomer, unassigned) [Example 15-2, (R or S)-2-chloro-N,N-dimethyl-4-(4-(1-(3,3,3-trifluoro-2-hydroxy-2-phenylpropanoyl)piperidin-4-yl)butyl)benzamide], the “LXR beta actiivty at max dose (%)” value [1, 3] was 95%, the EC50 ([1]; read-out: LXR beta IP) was 28 nM and the Emax [2, 3] was 20%. The EC50 ([2]; read-out: LXR alpha IP) was 623 nM.

For `CN(C)C(=O)c1ccc(CCCCC2CCN(C(=O)C(O)(c3ccccc3)C(F)(F)F)CC2)cc1Cl` (single isomer, unassigned) [Example 15-3, (S or R)-2-chloro-N,N-dimethyl-4-(4-(1-(3,3,3-trifluoro-2-hydroxy-2-phenylpropanoyl)piperidin-4-yl)butyl)benzamide], the “LXR beta actiivty at max dose (%)” value [1, 3] was 116%, the EC50 ([1]; read-out: LXR beta IP) was 31 nM and the “LXR alpha actiivty at max dose (%)” value [2, 3] was 36%. For the same compound, the EC50 ([2]; read-out: LXR alpha IP) was 846 nM.

In the case of `COc1cccc(C(O)(C(=O)N2CCC(CCCCCc3ccc(C(=O)N(C)C)c(Cl)c3)CC2)C(F)(F)F)c1` (single isomer, unassigned) [Example 15-5, (R or S)-2-chloro-N,N-dimethyl-4-(5-(1-(3,3,3-trifluoro-2-hydroxy-2-(3-methoxyphenyl)propanoyl)piperidin-4-yl)pentyl)benzamide], the Emax [1, 3] is reported as 75%, the EC50 ([1]; read-out: LXR beta IP) is reported as 16 nM and the Emax [2, 3] is reported as 22%. It also gave an EC50 ([2]; read-out: LXR alpha IP) of 516 nM.

In the case of `CNC(=O)c1ccc(CCCCCC2CCN(C(=O)C(O)(c3cccc(OC)c3)C(F)(F)F)CC2)cc1Cl` (single isomer, unassigned) [Example 15-6, (R or S)-2-chloro-N-methyl-4-(5-(1-(3,3,3-trifluoro-2-hydroxy-2-(3-methoxyphenyl)propanoyl)piperidin-4-yl)pentyl)benzamide], the Emax [1, 3] is reported as 96%, the EC50 ([1]; read-out: LXR beta IP) is reported as 6 nM and the Emax [2, 3] is reported as 27%. The EC50 ([2]; read-out: LXR alpha IP) was 381 nM.

For `CNC(=O)c1ccc(CCCCCC2CCN(C(=O)C(O)(c3ccccc3)C(F)(F)F)CC2)cc1Cl` (single isomer, unassigned) [Example 15-7, (R or S)-2-chloro-N-methyl-4-(5-(1-(3,3,3-trifluoro-2-hydroxy-2-phenylpropanoyl)piperidin-4-yl)pentyl)benzamide], the Emax [1, 3] was 93%, the EC50 ([1]; read-out: LXR beta IP) was 6 nM and the Emax [2, 3] was 40%. It also gave an EC50 ([2]; read-out: LXR alpha IP) of 327 nM.

`CN(C)C(=O)c1ccc(CCCCCC2CCN(C(=O)C(O)(c3ccccc3)C(F)(F)F)CC2)cc1Cl` (single isomer, unassigned) [Example 15-8, (R or S)-2-chloro-N,N-dimethyl-4-(5-(1-(3,3,3-trifluoro-2-hydroxy-2-phenylpropanoyl)piperidin-4-yl)pentyl)benzamide] was tested, and the Emax [1, 3] was 79%, the EC50 ([1]; read-out: LXR beta IP) was 9 nM and the “LXR alpha actiivty at max dose (%)” value [2, 3] was 29%. For the same compound, the EC50 ([2]; read-out: LXR alpha IP) was 236 nM.

With `CN(C)C(=O)c1ccc(CCCCCC2CCN(C(=O)C(O)(c3ccccc3)C(F)(F)F)CC2)cc1Cl` (single isomer, unassigned) [Example 15-9, (S or R)-2-chloro-N,N-dimethyl-4-(5-(1-(3,3,3-trifluoro-2-hydroxy-2-phenylpropanoyl)piperidin-4-yl)pentyl)benzamide] the “LXR beta actiivty at max dose (%)” value [1, 3] was 84%, the EC50 ([1]; read-out: LXR beta IP) was 240 nM and the “LXR alpha actiivty at max dose (%)” value [2, 3] was 4%. The “LXR alpha IP (nM)” value [2] was “No IP”.

With `COc1cccc([C@@](O)(C(=O)N2CCC3(CC2)CC(CCCc2ccc(C(=O)N(C)C)c(Cl)c2)C3)C(F)(F)F)c1` (single isomer, unassigned) [Example 16-1, 2-chloro-N,N-dimethyl-4-(3-(7-((R or S)-3,3,3-trifluoro-2-hydroxy-2-(3-methoxyphenyl)propanoyl)-7-azaspiro 13.51 nonan-2-yl)propyl)benzamide] the EC50 ([1]; LXR beta IP (nM)) was 132 nM, the Emax [1] was 100% and the EC50 ([2]; LXR alpha IP (nM)) was 1540 nM. The Emax [2] was 19%.

Compound `CN(C)C(=O)c1ccc(CCCC2CC3(CCN(C(=O)C(O)(c4ccccc4)C(F)(F)F)CC3)C2)cc1Cl` (single isomer, unassigned) [Example 16-2, 2-chloro-N,N-dimethyl-4-(3-(7-((R or S)-3,3,3-trifluoro-2-hydroxy-2-phenylpropanoyl)-7-azaspiro[3.5]nonan-2-yl)propyl)benzamide] has an Emax [1, 3] of 113%, an EC50 ([1]; read-out: LXR beta IP) of 59 nM and an Emax [2, 3] of 29%. For the same compound, the EC50 ([2]; read-out: LXR alpha IP) was 772 nM.

`CN(C)C(=O)c1ccc(CCCC2CC3(CCN(C(=O)C(O)(c4cccc(OC(F)(F)F)c4)C(F)(F)F)CC3)C2)cc1Cl` (single isomer, unassigned) [Example 16-4, 2-chloro-N,N-dimethyl-4-(3-(7-((S or R)-3,3,3-trifluoro-2-hydroxy-2-(3-(trifluoromethoxy)phenyl)propanoyl)-7-azaspiro[3.5]nonan-2-yl)propyl)benzamide] was tested, and the Emax [1, 3] was 96%, the EC50 ([1]; read-out: LXR beta IP) was 58 nM and the Emax [2, 3] was 8%. For the same compound, the “LXR alpha IP (nM)” value [2] was “No IP”.

`COc1cccc([C@@](O)(C(=O)N2CCC3(CC2)C[C@H]3CCCc2ccc(C(=O)N(C)C)c(Cl)c2)C(F)(F)F)c1` (single isomer, unassigned) [Example 17-1, 2-chloro-N,N-dimethyl-4-(3-((R or S)-6-((R or S)-3,3,3-trifluoro-2-hydroxy-2-(3-methoxyphenyl)propanoyl)-6-azaspiro[2.5]octan-1-yl)propyl)benzamide] showed an Emax [1, 3] of 51%, an EC50 ([1]; read-out: LXR beta IP) of 12 nM and an Emax [2, 3] of 0%. The “LXR alpha IP (nM)” value [2] was “No IP”.

For `CN(C)C(=O)c1ccc(CCC[C@H]2CC23CCN(C(=O)[C@](O)(c2ccccc2)C(F)(F)F)CC3)cc1Cl` (single isomer, unassigned) [Example 17-2, 2-chloro-N,N-dimethyl-4-(3-((S or R)-6-((R or S)-3,3,3-trifluoro-2-hydroxy-2-phenylpropanoyl)-6-azaspiro[2.5]octan-1-yl)propyl)benzamide], the Emax [1, 3] was 128%, the EC50 ([1]; read-out: LXR beta IP) was 25 nM and the Emax [2, 3] was 35%. It also gave an EC50 ([2]; read-out: LXR alpha IP) of 395 nM.

`COc1cccc([C@@](O)(C(=O)N2CCC3(CC2)C[C@H]3CCCc2ccc(C(=O)NC3CC3)c(Cl)c2)C(F)(F)F)c1` (single isomer, unassigned) [Example 17-3, 2-chloro-N-cyclopropyl-4-(3-((R or S)-6-((R or S)-3,3,3-trifluoro-2-hydroxy-2-(3-methoxyphenyl)propanoyl)-6-azaspiro[2.5]octan-1-yl)propyl)benzamide] was tested, and the Emax [1, 3] was 43%, the EC50 ([1]; read-out: LXR beta IP) was 19 nM and the Emax [2, 3] was 8%. For the same compound, the “LXR alpha IP (nM)” value [2] was “No IP”.

In the case of `COc1cccc(C(O)(C(=O)N2CCC3(CCC(Cc4ccc(C(=O)N(C)C)c(Cl)c4)CC3)CC2)C(F)(F)F)c1` (single isomer, unassigned) [Example 18-1, 2-chloro-N,N-dimethyl-4-((3-((R or S)-3,3,3-trifluoro-2-hydroxy-2-(3-methoxyphenyl)propanoyl)-3-azaspiro[5.5]undecan-9-yl)methyl)benzamide], the EC50 ([1]; LXR beta IP (nM)) is reported as 72 nM, the Emax [1] is reported as 65% and the Emax [2, 3] is reported as 21%. It also gave an EC50 ([2]; read-out: LXR alpha IP) of 739 nM.
